Test results: publication PMC11986975, “A Cdk5 inhibitor restores cognitive function and alleviates type 2 diabetes in mice” (iScience, 2025)

Assays:
Cdk5/p25 = Cdk5/p25 (Homo sapiens, UniProt Q00535); assay: Cdk5 kinase assay (ADP-Glo) with Cdk5/p25 complex; type: biochemical; conditions: 10 μM ATP, histone substrate, inhibitor 0-100 nM
Method: The test tube Cdk5 Kinase assay was performed utilizing Cdk5/p35 and Cdk5/p25 complexes as kinases, following the modified procedure outlined in a previous study,[52] using a Promega ADP-GloTM Kinase Assay kit. The reaction was carried out with 10 μM ATP and 2 μg of histone as the substrate for Cdk5 complexes. To study the inhibition patterns, 19 Cdk5 inhibitors (BLINK1-19) identified through molecular docking were added to the Cdk5 kinase reaction in increasing concentrations ranging from 0 to 100 nM. The IC50 (half-maximal inhibitory concentration) values of all the inhibitors were calculated based on Log(inhibitor) vs. normalized response using GraphPad software.

[1] = MTT cell toxicity assay in HepG2 cells; type: cell-based; conditions: human, all doses (25 to 100 μM)
Method: HEK293T, HepG2, and N2A cells were used in the study representing kidney, liver and neuronal cell lines respectively. The cells were cultured in DMEM supplemented with 10% fetal bovine serum and antibiotics at 37°C under 5% CO2. The cells were tested negative for mycoplasma.
To evaluate the compound toxicity for the Cdk5 inhibitors, an MTT assay was performed in HEK293T, HepG2, and N2A cells at varying concentrations. Six hours after cell seeding, the compounds were added in different amounts, and the cells were harvested after 24 h for further analysis. N2A cells were transfected using Lipofectamine-3000 reagent, co-transfecting with plasmids encoding Cdk5/p35 and Cdk5/p25 for 12 h, followed by inhibitor treatment to assess their effects in the cell culture system. The concentrations of each plasmids used was 1 μg, total of 3 μg per well for 6 well plates.

HFD-fed mice [2] = assay: Elevated plus maze (EPM) in HFD mice; type: in vivo; conditions: i.p., 20 days, compared to HFD group
Source text: In order to examine anxiety-like behavior, phenotype transgenic and knockout mice, and screen for anxiolytic and anxiogenic medicines, this maze takes advantage of the natural fear of open, high areas in rodents.[56]^,[57]
The EPM experiment is a widely utilized technique in behavioral neuroscience to evaluate anxiety-related behaviors in mice.[57] The apparatus comprises two open arms and two closed arms arranged in a plus-shaped configuration and elevated above the ground. Mice are introduced to the center of the maze, and their movements are observed over a set period of 5 min.[56]^,[58] The amount of time spent in the open arms versus the closed arms is recorded, with more time in the open arms indicating lower anxiety levels. The distance traveled in each arm were also analyzed using ANYmaze software. This method leverages the natural tendency of rodents to avoid open spaces and seek enclosed areas.

HFD-fed mice [3] = assay: Morris water maze (MWM) in HFD mice; type: in vivo; conditions: i.p., both doses 20 and 40 mg/kg/day, 20 days
Method: The MWM test was conducted to evaluate memory and spatial learning in mice, using visual cues placed on the walls of a water tank. For five consecutive days, the mice were trained in the water maze, with each session involving the release of the mice from various starting points and the task of locating a hidden platform within the maze. Each day, the mice underwent four trials, following the established protocol by Charles V. Vorhees (2006). The time taken (latency) for each mouse to find the platform was measured and recorded throughout the training period.
On the sixth day, a probe test was conducted to assess reference memory. The hidden platform was removed, and the mice’s behavior was observed as they navigated the maze. The time spent in the target quadrant and the time taken to reach the former platform location were recorded. This probing phase aimed to evaluate the mice’s retention of the spatial information and memory acquired during the training sessions. The MWM test evaluated memory and spatial learning in mice using visual cues in a water tank. Over five days, mice were trained to find a platform within the tank, undergoing four trials daily as per Charles V. Vorhees' protocol. On day six, a probing experiment assessed reference memory. […] Time spent and latency to reach the target quadrant were recorded. […]

CDK5 = tested on: T1, CDK5; assay: Cdk5 kinase activity of Cdk5 pulled down from hippocampus lysate of treated HFD mice; type: in vivo; conditions: i.p., 20 days, in the presence of p25
T1 construct: Cdk5 kinase activity using pulled down Cdk5 from the hippocampus lysate of the mouse groups; from tissue; host or cells: hippocampus / brain lysate of male C57BL/6J mice on high-fat diet
Method: Cdk5 was immunoprecipitated from N2A cells and brain lysate using a Cdk5 antibody. Kinase assays were performed using a Promega ADP-Glo Kinase Assay kit with Cdk5/p35 and Cdk5/p25 complexes. Histone was used as a substrate to test kinase activity Cdk5 was immunoprecipitated from N2a cells overexpressing Cdk5/p35 and Cdk5/p25, following treatment with BLINK11 and BLINK15 inhibitors at concentrations of 50nM and 100nM, using a Cdk5 antibody. A kinase assay was subsequently conducted as described in Bankston et al.[53] Additionally, Cdk5 was precipitated from mouse brain lysates treated with BLINK11 and BLINK15 inhibitors. The immunoprecipitation was performed with 100 μL of A/G beads, 2 μg of Cdk5 antibody, and 150 μg of cell and brain lysates, with elution carried out using a urea elution buffer. The kinase assay was conducted using the ADP-Glo Kinase Assay Kit (Promega) with immunoprecipitated Cdk5, ATP, and 1–2 μg of histone as the substrate.

HFD-fed mice [4] = assay: Rotarod test in HFD mice; type: in vivo; conditions: i.p., 20 days
Method: Rats and mice have been tested for motor coordination using the rotarod test. The animals were placed on a horizontal rod that rotates around its long axis for this test; in order to remain upright and prevent sliding off, the animal must move ahead. Every 5 min, the rod’s speed was raised, and the number of falls were counted to assess the motor coordination.[23]^,[55]

amyloid beta (Aβ) 1–42 = assay: Amyloid beta 1-42 in hippocampus of treated HFD mice (ELISA and immunohistochemistry); type: in vivo; conditions: i.p., 40 mg/kg

Cdk5/p25, sequence (Q00535 whole entry, species assumed): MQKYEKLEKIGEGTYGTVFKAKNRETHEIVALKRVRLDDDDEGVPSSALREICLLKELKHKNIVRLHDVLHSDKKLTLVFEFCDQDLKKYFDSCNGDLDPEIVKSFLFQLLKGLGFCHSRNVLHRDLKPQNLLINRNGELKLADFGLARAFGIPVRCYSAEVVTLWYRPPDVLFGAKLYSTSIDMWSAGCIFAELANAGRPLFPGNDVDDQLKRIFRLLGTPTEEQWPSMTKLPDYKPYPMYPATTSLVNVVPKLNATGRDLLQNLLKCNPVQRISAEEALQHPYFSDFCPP
Cdk5/p25, sequence (Q15078 99-307 partner limits assumed, species assumed): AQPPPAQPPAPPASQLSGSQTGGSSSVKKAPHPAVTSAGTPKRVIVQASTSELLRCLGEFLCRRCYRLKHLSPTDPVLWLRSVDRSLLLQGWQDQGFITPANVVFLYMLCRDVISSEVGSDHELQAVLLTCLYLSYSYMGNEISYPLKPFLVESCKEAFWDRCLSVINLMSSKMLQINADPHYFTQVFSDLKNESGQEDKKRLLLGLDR

Row | SMILES | IC50 (Cdk5/p25) | viability at 24 h [1] | Anxiety behavior in elevated plus maze (time in open and closed arms) (HFD-fed mice [2]) | Water maze time to reach the platform (spatial learning and memory) (HFD-fed mice [3]) | CDK5 activity in hippocampal lysate (CDK5) | Muscle strength and motor coordination on the rotarod (HFD-fed mice [4]) | Aβ 1–42 accumulation in the hippocampus (amyloid beta (Aβ) 1–42)
1 | COc1ccc(C(=O)C[C@@]2(O)C(=O)N(Cc3ccccc3)c3ccc(Br)cc32)cc1[N+](=O)[O-] [BLINK15] | 12.1 nM | > 50% | no significant difference compared to the HFD group | rescue behavior | significant reduction in CDK5 activity | – | –
2 | O=C(COc1ccccc1C(=O)Nc1cccc(Cl)c1Cl)Nc1ccc(N2CCOCC2)c(Cl)c1 [BLINK11, 2-(2-((3-chloro-4-morpholinophenyl)amino)-2-oxoethoxy)-N-(2,3-dichlorophenyl)benzamide] | 14.7 nM | > 50% | rescuing effect on anxiety behavior | rescue behavior | significant reduction in CDK5 activity | rescue effect | significantly reduced
